# Patent publication US20060247129A1, “Surfactant compounds and agrochemical compositions” (Imperial Chemical Industries PLC, priority 2003, published 2006)
# Legend:
# Test in all cases: glasshouse herbicide spray test, % weed control, adjuvant with glyphosate potassium salt
# Format in all cases: in vivo
# Conditions in all cases: 19 days after treatment
# Abutilon Theophrasti = test system: Abutilon Theophrasti
# Experimental: (§1) The compound of Synthesis Example SE1 was tested as an adjuvant with glyphosate potassium salt, mixing the glyphosate and adjuvant in a tank mix using concentrations of glyphosate from 0.125 to 2 g.l-1 and of adjuvant from 0.003125 to 0.2% v/v. The tank mixes were sprayed as a herbicide on a variety of test species at an application rate of 200 l.ha^−1 to give application rates of glyphosate of from 25 to 400 g (active ingredient).ha^−1. The plants were grown in a warm glasshouse and assessed 19 days after treatment for % control—the mean of three replicates for visually assessed % weed control, relative to unsprayed plants of each species in the same test.
# (§2) Example AE1 was repeated but using the compound made in Synthesis Example SE4 as the adjuvant.
# Solanum nigra = test system: Solanum nigra
# Experimental: as §1, §2
# Portulaca oleracea = test system: Portulaca oleracea
# Experimental: as §1, §2
# Sida Spinosa = test system: Sida Spinosa
# Experimental: as §1, §2
# Echinochloa crus-galli = test system: Echinochloa crus-galli
# Experimental: as §1, §2
# Sorghum halepense = test system: Sorghum halepense
# Experimental: as §1, §2
# [1] = glyphosate 50 g ai/ha, adjuvant 0.003125 % v/v
# [2] = glyphosate 50 g ai/ha, adjuvant 0.0125 % v/v
# [3] = glyphosate 50 g ai/ha, adjuvant 0.05 % v/v
# [4] = glyphosate 50 g ai/ha, adjuvant 0.2 % v/v
# [5] = glyphosate 100 g ai/ha, adjuvant 0.003125 % v/v
# [6] = glyphosate 100 g ai/ha, adjuvant 0.0125 % v/v
# [7] = glyphosate 100 g ai/ha, adjuvant 0.05 % v/v
# [8] = glyphosate 100 g ai/ha, adjuvant 0.2 % v/v
# [9] = glyphosate 200 g ai/ha, adjuvant 0.003125 % v/v
# [10] = glyphosate 200 g ai/ha, adjuvant 0.0125 % v/v
# [11] = glyphosate 200 g ai/ha, adjuvant 0.05 % v/v
# [12] = glyphosate 200 g ai/ha, adjuvant 0.2 % v/v
# [13] = glyphosate 400 g ai/ha, adjuvant 0.003125 % v/v
# [14] = glyphosate 400 g ai/ha, adjuvant 0.0125 % v/v
# [15] = glyphosate 400 g ai/ha, adjuvant 0.05 % v/v
# [16] = glyphosate 400 g ai/ha, adjuvant 0.2 % v/v
# [17] = glyphosate 25 g ai/ha, adjuvant 0.003125 % v/v
# [18] = glyphosate 25 g ai/ha, adjuvant 0.0125 % v/v
# [19] = glyphosate 25 g ai/ha, adjuvant 0.05 % v/v
# [20] = glyphosate 25 g ai/ha, adjuvant 0.2 % v/v
substance,measurement,setting,value
Random 8-ethoxylate-2-propoxylate of N-methyl glucamine C13/C15 glycidyl ether [SE4],% control ABUTH,Abutilon Theophrasti; [1],40%
same,% control ABUTH,Abutilon Theophrasti; [2],48%
same,% control ABUTH,Abutilon Theophrasti; [3],25%
same,% control ABUTH,Abutilon Theophrasti; [4],43%
same,% control ABUTH,Abutilon Theophrasti; [5],42%
same,% control ABUTH,Abutilon Theophrasti; [6],33%
same,% control ABUTH,Abutilon Theophrasti; [7],50%
same,% control ABUTH,Abutilon Theophrasti; [8],52%
same,% control ABUTH,Abutilon Theophrasti; [9],42%
same,% control ABUTH,Abutilon Theophrasti; [10],65%
same,% control ABUTH,Abutilon Theophrasti; [11],58%
same,% control ABUTH,Abutilon Theophrasti; [12],68%
same,% control ABUTH,Abutilon Theophrasti; [13],78%
same,% control ABUTH,Abutilon Theophrasti; [14],80%
same,% control ABUTH,Abutilon Theophrasti; [15],81%
same,% control ABUTH,Abutilon Theophrasti; [16],85%
same,% control SOLNI,Solanum nigra; [1],37%
same,% control SOLNI,Solanum nigra; [2],32%
same,% control SOLNI,Solanum nigra; [3],63%
same,% control SOLNI,Solanum nigra; [4],73%
same,% control SOLNI,Solanum nigra; [5],65%
same,% control SOLNI,Solanum nigra; [6],68%
same,% control SOLNI,Solanum nigra; [7],71%
same,% control SOLNI,Solanum nigra; [8],78%
same,% control SOLNI,Solanum nigra; [9],78%
same,% control SOLNI,Solanum nigra; [10],73%
same,% control SOLNI,Solanum nigra; [11],80%
same,% control SOLNI,Solanum nigra; [12],82%
same,% control SOLNI,Solanum nigra; [13],83%
same,% control SOLNI,Solanum nigra; [14],83%
same,% control SOLNI,Solanum nigra; [15],84%
same,% control SOLNI,Solanum nigra; [16],85%
same,% control POROC,Portulaca oleracea; [1],7%
same,% control POROC,Portulaca oleracea; [2],2%
same,% control POROC,Portulaca oleracea; [3],13%
same,% control POROC,Portulaca oleracea; [4],35%
same,% control POROC,Portulaca oleracea; [5],8%
same,% control POROC,Portulaca oleracea; [6],18%
same,% control POROC,Portulaca oleracea; [7],43%
same,% control POROC,Portulaca oleracea; [8],46%
same,% control POROC,Portulaca oleracea; [9],28%
same,% control POROC,Portulaca oleracea; [10],36%
same,% control POROC,Portulaca oleracea; [11],45%
same,% control POROC,Portulaca oleracea; [12],50%
same,% control POROC,Portulaca oleracea; [13],42%
same,% control POROC,Portulaca oleracea; [14],47%
same,% control POROC,Portulaca oleracea; [15],63%
same,% control POROC,Portulaca oleracea; [16],81%
same,% control SIDSP,Sida Spinosa; [1],30%
same,% control SIDSP,Sida Spinosa; [2],38%
same,% control SIDSP,Sida Spinosa; [3],38%
same,% control SIDSP,Sida Spinosa; [4],38%
same,% control SIDSP,Sida Spinosa; [5],37%
same,% control SIDSP,Sida Spinosa; [6],38%
same,% control SIDSP,Sida Spinosa; [7],52%
same,% control SIDSP,Sida Spinosa; [8],62%
same,% control SIDSP,Sida Spinosa; [9],50%
same,% control SIDSP,Sida Spinosa; [10],63%
same,% control SIDSP,Sida Spinosa; [11],77%
same,% control SIDSP,Sida Spinosa; [12],76%
same,% control SIDSP,Sida Spinosa; [13],76%
same,% control SIDSP,Sida Spinosa; [14],78%
same,% control SIDSP,Sida Spinosa; [15],78%
same,% control SIDSP,Sida Spinosa; [16],77%
same,% control ECHCG,Echinochloa crus-galli; [17],12%
same,% control ECHCG,Echinochloa crus-galli; [18],15%
same,% control ECHCG,Echinochloa crus-galli; [19],51%
same,% control ECHCG,Echinochloa crus-galli; [20],53%
same,% control ECHCG,Echinochloa crus-galli; [1],32%
same,% control ECHCG,Echinochloa crus-galli; [2],35%
same,% control ECHCG,Echinochloa crus-galli; [3],68%
same,% control ECHCG,Echinochloa crus-galli; [4],91%
same,% control ECHCG,Echinochloa crus-galli; [5],78%
same,% control ECHCG,Echinochloa crus-galli; [6],83%
same,% control ECHCG,Echinochloa crus-galli; [7],90%
same,% control ECHCG,Echinochloa crus-galli; [8],98%
same,% control ECHCG,Echinochloa crus-galli; [9],90%
same,% control ECHCG,Echinochloa crus-galli; [10],89%
same,% control ECHCG,Echinochloa crus-galli; [11],95%
same,% control ECHCG,Echinochloa crus-galli; [12],98%
same,% control SORHA,Sorghum halepense; [17],8%
same,% control SORHA,Sorghum halepense; [18],8%
same,% control SORHA,Sorghum halepense; [19],32%
same,% control SORHA,Sorghum halepense; [20],84%
same,% control SORHA,Sorghum halepense; [1],23%
same,% control SORHA,Sorghum halepense; [2],20%
same,% control SORHA,Sorghum halepense; [3],68%
same,% control SORHA,Sorghum halepense; [4],89%
same,% control SORHA,Sorghum halepense; [5],78%
same,% control SORHA,Sorghum halepense; [6],70%
same,% control SORHA,Sorghum halepense; [7],90%
same,% control SORHA,Sorghum halepense; [8],95%
same,% control SORHA,Sorghum halepense; [9],87%
same,% control SORHA,Sorghum halepense; [10],89%
same,% control SORHA,Sorghum halepense; [11],96%
same,% control SORHA,Sorghum halepense; [12],95%
